Entries after “also recorded” stand apart in the source; their conditions may differ.
Columns and labels:
Human ESCs (CyT203) [1] = experiment: Differentiation of hESCs in growth factor conditions, marker gene expression by QPCR; format: cell-based; settings: for expression of brachyury: RPMI, 0% FBS day 1, 0.2% day 2, 2% days 3-5, activin A 100 ng/ml at 36 and 48 hours; for differentiation of hESCs to initial cell fate, as indicated by marker expression: cultures lacking insulin, follistatin 100 ng/ml, noggin 200 ng/ml, BMP4 100 ng/ml, 5 days
Protocol: Human ESCs (CyT203) were grown in growth media on a mouse fibroblast feeder layer. On the day differentiation began, cultures were washed once with phosphate buffered saline (PBS) and then placed into differentiation media. Differentiation media consisted of RPMI with penicillin/streptomycin and Glutamax containing 0% FBS on the first day, 0.2% v/v FBS on the second day and 2% v/v FBS on days 3-5. Growth factors were used at the following concentrations: activin A at 100 ng/ml, follistatin at 100 ng/ml, noggin at 200 ng/ml, BMP4 at 100 ng/ml, and SU5402 at 5 μM. Individual cultures received the same growth factor cocktail with or without the addition of 10 μg/ml human recombinant insulin for all 5 days of differentiation as indicated. Samples were taken at daily intervals for analysis of gene expression using QPCR to monitor the differentiation of the populations in response to the different growth factor treatments. At the conclusion of the treatment phase the cells were fixed in 4% paraformaldehyde for 15 min at room temperature and reacted with antibodies to SOX17 or PAX6. Human embryonic stem cells (CyT203) were grown in growth media on a mouse fibroblast feeder layer. On the day differentiation began, cultures were washed once with phosphate buffered saline (PBS) and then placed into differentiation media. Differentiation media consisted of RPMI with penicillin/streptomycin and Glutamax containing 0% FBS on the first day, 0.2% v/v FBS on the second day and 2% v/v FBS on days 3-5. Cultures were treated with SU5402 at 5 μM with or without the addition of human recombinant insulin at 10 μg/ml. Individual cultures received the same growth factor cocktail for all 5 days of differentiation as indicated. Samples were taken at daily intervals for analysis of gene expression using QPCR to monitor the differentiation of the populations in response to the different growth factor treatments. At the conclusion of the treatment phase the cells were fixed in 4% paraformaldehyde for 15 min at room temperature and reacted with antibodies to SOX17, OCT4 or PAX6.

Human ESCs (CyT203) [2] = experiment: Immunofluorescence of treated hESCs with antibodies to SOX17, OCT4 or PAX6; format: cell-based
Protocol: Human ESCs (CyT203) were grown in growth media on a mouse fibroblast feeder layer. On the day differentiation began, cultures were washed once with phosphate buffered saline (PBS) and then placed into differentiation media. Differentiation media consisted of RPMI with penicillin/streptomycin and Glutamax containing 0% FBS on the first day, 0.2% v/v FBS on the second day and 2% v/v FBS on days 3-5. Growth factors were used at the following concentrations: activin A at 100 ng/ml, follistatin at 100 ng/ml, noggin at 200 ng/ml, BMP4 at 100 ng/ml, and SU5402 at 5 μM. Individual cultures received the same growth factor cocktail with or without the addition of 10 μg/ml human recombinant insulin for all 5 days of differentiation as indicated. Samples were taken at daily intervals for analysis of gene expression using QPCR to monitor the differentiation of the populations in response to the different growth factor treatments. At the conclusion of the treatment phase the cells were fixed in 4% paraformaldehyde for 15 min at room temperature and reacted with antibodies to SOX17 or PAX6.
Human embryonic stem cells (CyT203) were grown in growth media on a mouse fibroblast feeder layer. On the day differentiation began, cultures were washed once with phosphate buffered saline (PBS) and then placed into differentiation media. Differentiation media consisted of RPMI with penicillin/streptomycin and Glutamax containing 0% FBS on the first day, 0.2% v/v FBS on the second day and 2% v/v FBS on days 3-5. Cultures were treated with SU5402 at 5 μM with or without the addition of human recombinant insulin at 10 μg/ml. Individual cultures received the same growth factor cocktail for all 5 days of differentiation as indicated. Samples were taken at daily intervals for analysis of gene expression using QPCR to monitor the differentiation of the populations in response to the different growth factor treatments. At the conclusion of the treatment phase the cells were fixed in 4% paraformaldehyde for 15 min at room temperature and reacted with antibodies to SOX17, OCT4 or PAX6.

[3] = QPCR, activin A 100 ng/ml, SU5402 5 μM
[4] = QPCR, insulin 10 μg/ml added to growth factor treatment
[5] = QPCR, no insulin, continued presence of activin A 100 ng/ml

Molecule: Cc1c[nH]c(/C=C2\C(=O)Nc3ccccc32)c1CCC(=O)O [SU5402, reference compound]
- expression of brachyury (Human ESCs (CyT203) [1]; QPCR, no insulin, SU5402 5 μM): elevated expression
- differentiation of hESCs to initial cell fate, as indicated by marker expression (Human ESCs (CyT203) [1]; [3]): make all available fate choices; also recorded: made all available fate choices
- expression of CDX2 (Human ESCs (CyT203) [1]; QPCR, no insulin, SU5402 5 μM): elevated expression
- expression of SOX1 (Human ESCs (CyT203) [1]; QPCR, no insulin, SU5402 5 μM): elevated expression
- expression of SOX7 (Human ESCs (CyT203) [1]; QPCR, no insulin, SU5402 5 μM): elevated expression

Molecule: insulin: human recombinant insulin, 10 μg/ml, signals through the PI-3-kinase pathway
- production of cells of each of the primary lineages (Human ESCs (CyT203) [1]; 10 μg/ml human recombinant insulin added to the growth factor cocktail, all 5 days): significantly reduced
- expression of CDX2 in the presence of insulin (Human ESCs (CyT203) [1]; [4]): decreased expression
- expression of PAX6 in the presence of insulin (Human ESCs (CyT203) [1]; [4]): decreased expression
- expression of SOX1 in the presence of insulin (Human ESCs (CyT203) [1]; [4]): decreased expression
- expression of SOX7 in the presence of insulin (Human ESCs (CyT203) [1]; [4]): decreased expression
- expression of WNT3A in the presence of insulin (Human ESCs (CyT203) [1]; [4]): decreased expression
- expression of brachyury in the presence of insulin (Human ESCs (CyT203) [1]; [4]): decreased expression
- generalized differentiation under SU5402 (Human ESCs (CyT203) [1]; SU5402 5 μM plus insulin 10 μg/ml, brachyury, SOX1, SOX7, CDX2): inhibited strongly
- efficiency with which the hESCs differentiate to each of the 4 primary lineages (Human ESCs (CyT203) [1]; high levels of insulin (10 μg/ml) in the media): decrease
- OCT4-positive cell numbers (Human ESCs (CyT203) [2]; high levels of insulin present): maintenance
- number of SOX17-positive cells in response to activin A treatment (Human ESCs (CyT203) [2]; high levels of insulin present): decrease
- number of PAX6-positive cells in response to noggin/follistatin treatment (Human ESCs (CyT203) [2]; insulin in the media): reduced

B1: activin A: growth factor used at 100 ng/ml as differentiation factor (protein, UniProt P08476 311-426, looked up)
Inhibin beta A chain: GLECDGKVNICCKKQFFVSFKDIGWNDWIIAPSGYHANYCEGECPSHIAGTSGSSLSFHSTVINHYRMRGHSPFANLKSCCVPTKLRPMSMLYYDDGQNIIKKDIQNMIVEECGCS
modifications: Inhibin beta A chain
notes: growth factor used at 100 ng/ml as differentiation factor
- expression of brachyury (Human ESCs (CyT203) [1]; QPCR, no insulin, SU5402 5 μM): elevated expression
- differentiation of hESCs to initial cell fate, as indicated by marker expression (Human ESCs (CyT203) [1]; [3]): induced initial fate commitment to mesendoderm
- PAX6 mRNA (Human ESCs (CyT203) [1]; QPCR, no insulin, activin A 100 ng/ml): induction
- expression of WNT3A (Human ESCs (CyT203) [1]; QPCR, no insulin, activin A 100 ng/ml, at 36 and 48 hours): elevated expression
- expression of GSC (Human ESCs (CyT203) [1]; [5]): elevated expression
- expression of SOX17 (Human ESCs (CyT203) [1]; [5]): elevated expression
- further differentiation of the mesendoderm (Human ESCs (CyT203) [1]; continued presence of activin A 100 ng/ml, indicated by SOX17 and GSC): further differentiated to definitive endoderm
